{
  "source": "patent US20230190718A1",
  "about": "“METHODS FOR THE TREATMENT OF PANCREATITIS AND PREVENTION OF PANCREATIC CANCER” (BOARD OF REGENTS, THE UNIVERSITY OF TEXAS SYSTEM, priority 2020, published 2023)",
  "system": "Caerulein-induced pancreatitis",
  "assay": "Pretreatment with ADM inducers in caerulein-induced pancreatitis: histology (ADM) and CD45 infiltration",
  "type": "in vivo, mice",
  "conditions": "40 mg/kg b.i.d oral gavage before and during Caerulein; 24 hours after end of Caerulein injections",
  "from_the_text": "Epigenetic modifiers: Recently, the emerging role of epigenetic regulation has led to the development of a wide spectrum of small molecules targeting selectively bromodomain and extra-terminal (BET) protein family which are currently under evaluation in preclinical model of hematological malignancies and solid tumors (Asangani et al., 2014; Delmore et al., 2011; Filippakopoulos et al., 2010). Leveraging the persistent chromatin modifications induced by an acute inflammatory event, the possibility of limiting the detrimental effects of repeated pancreatitis was tested through the administration of INCB054329, a BRD4 inhibitor currently in phase I-II clinical studies in patients with advanced malignancies (Falchook et al., 2019).\nInduction of acute pancreatitis. […] Control mice received injections of pyrogen-free PBS. Mice were examined daily for health conditions and sacrificed at the indicated time points by CO2 asphyxiation and cervical dislocation.\nDAPI nuclear counterstaining was also performed.",
  "note": "Entries after “also recorded” stand apart in the source; their conditions may differ.",
  "data": [
    {"smiles": "Cc1noc(C)c1-c1ccc2[nH]c(=O)n3c2c1OC[C@@H]3c1ccccn1", "note": "[INCB054329]", "values": [
      {"measurement": "ADM induction (histological evaluation)", "result": "massive induction of ADM; also recorded: significant ADM induction"},
      {"measurement": "inflammatory infiltration (CD45 immunostaining)", "result": "dramatic reduction of inflammatory infiltration; also recorded: strong suppression of inflammation"}
    ]}
  ]
}
